Consider 21 molecules from patent US8633206B2, “Pyrrolo[2,3-D]pyrimidine compounds” (Pfizer Inc., priority 2009, dated 2014).

The IC50 is the concentration that gives 50% inhibition.

Type in all cases: biochemical
One assay deals with JAK2 (Homo sapiens (Human), UniProt O60674). The assay can be described thus: JAK enzymatic assay (peptide mobility shift), JAK2. The note with it: recombinant JAK2 2 nM, JAKtide peptide, 150 minutes. An excerpt: Recombinant JAK1 (Catalog Number PV4775), JAK2 (Catalog Number PV4210) and JAK3 (Catalog Number PV3855) were purchased from (Invitrogen Corporation, Madison, Wis.). Tyk2 (His-Tyk2 (888-1182, C936S, C1142S)) used in this study was expressed and purified at Pfizer Laboratories. Adenosine 5′-triphosphate (ATP) was obtained from (Sigma Chemical Company, St. Louis, Mo.). […] Coating Reagent 3 was purchased from (Caliper Life Sciences, Hopkinton, Mass.).
A peptide mobility shift assay was used to quantify the phosphorylation of the JAKtide (JAK2 and JAK3) or the IRS-1 peptide (JAK1 and Tyk2). Reactions were carried out in a 384-well plate (Matrical MP-101) in a 10 L total volume. […] Compounds were diluted serially in 100% dimethyl sulfoxide and tested in an 11 point dose response in duplicate or quadruplicate (200 nl of compound/DMSO was added per 10 L reaction). The reactions were initiated by the addition of enzyme to the final concentration of 2 nM JAK2, 1 nM JAK3, 12 nM Tyk2 or 20 nM JAK1. The assay was run for 240 minutes for JAK1, 150 minutes for JAK2, 90 minutes for JAK3 and 70 minutes for Tyk2. The assays were stopped at the specified times with 20 uL of 140 mM HEPES, 22.5 mM EDTA and 0.15% Coating Reagent 3. The plates were placed on a LabChip 3000 (LC3000) instrument from (Caliper Life Sciences) to measure the formation of phosphorylated peptide. Data was analyzed using Hits Well Analyzer Software from (Caliper Life Sciences) to obtain the amount of product formed.
(§1) Data was then imported into an internal application where each data point is expressed as % inhibition based on uninhibited and no enzyme controls. Dose-response data is then fit using a 4 parameter logistic equation (Equation 1) to determine an IC50.

The next assay has as its target JAK3 (Homo sapiens (Human), UniProt P52333). The assay can be described thus: JAK enzymatic assay (peptide mobility shift), JAK3. To be noted: recombinant JAK3 1 nM, JAKtide peptide, 90 minutes. On the procedure: (§2) Recombinant JAK1 (Catalog Number PV4775), JAK2 (Catalog Number PV4210) and JAK3 (Catalog Number PV3855) were purchased from (Invitrogen Corporation, Madison, Wis.). […] Adenosine 5′-triphosphate (ATP) was obtained from (Sigma Chemical Company, St. Louis, Mo.). […] Coating Reagent 3 was purchased from (Caliper Life Sciences, Hopkinton, Mass.).
(§3) Compounds were diluted serially in 100% dimethyl sulfoxide and tested in an 11 point dose response in duplicate or quadruplicate (200 nl of compound/DMSO was added per 10 L reaction). […] The assay was run for 240 minutes for JAK1, 150 minutes for JAK2, 90 minutes for JAK3 and 70 minutes for Tyk2. […] The plates were placed on a LabChip 3000 (LC3000) instrument from (Caliper Life Sciences) to measure the formation of phosphorylated peptide. Data was analyzed using Hits Well Analyzer Software from (Caliper Life Sciences) to obtain the amount of product formed.
as §1

The next assay addresses JAK1 (Homo sapiens (Human), UniProt P23458). The assay can be described thus: JAK enzymatic assay (peptide mobility shift), JAK1. The note with it: recombinant JAK1 20 nM, IRS-1 peptide, 240 minutes. As to the method:
as §2, §3, §1

JAK3, sequence (P52333 781-1124): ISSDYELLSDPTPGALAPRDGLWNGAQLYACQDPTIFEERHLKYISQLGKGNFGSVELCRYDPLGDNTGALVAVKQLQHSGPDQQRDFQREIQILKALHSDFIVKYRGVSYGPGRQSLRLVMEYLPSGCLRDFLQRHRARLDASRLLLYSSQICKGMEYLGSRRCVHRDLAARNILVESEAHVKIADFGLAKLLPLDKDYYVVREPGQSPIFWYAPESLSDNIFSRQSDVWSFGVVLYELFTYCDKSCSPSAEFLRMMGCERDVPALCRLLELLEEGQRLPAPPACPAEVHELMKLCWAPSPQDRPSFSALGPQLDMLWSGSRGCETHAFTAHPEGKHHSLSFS
JAK2, sequence (O60674 808-1132): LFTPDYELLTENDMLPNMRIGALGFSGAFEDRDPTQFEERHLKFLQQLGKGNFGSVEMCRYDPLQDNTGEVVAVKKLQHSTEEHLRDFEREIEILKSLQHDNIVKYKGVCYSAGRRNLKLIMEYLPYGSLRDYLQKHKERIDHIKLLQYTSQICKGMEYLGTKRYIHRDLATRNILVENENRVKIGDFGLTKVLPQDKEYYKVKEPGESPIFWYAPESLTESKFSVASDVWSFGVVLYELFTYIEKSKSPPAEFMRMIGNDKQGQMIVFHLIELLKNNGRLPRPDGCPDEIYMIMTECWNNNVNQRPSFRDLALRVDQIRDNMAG
JAK1, sequence (P23458 whole entry): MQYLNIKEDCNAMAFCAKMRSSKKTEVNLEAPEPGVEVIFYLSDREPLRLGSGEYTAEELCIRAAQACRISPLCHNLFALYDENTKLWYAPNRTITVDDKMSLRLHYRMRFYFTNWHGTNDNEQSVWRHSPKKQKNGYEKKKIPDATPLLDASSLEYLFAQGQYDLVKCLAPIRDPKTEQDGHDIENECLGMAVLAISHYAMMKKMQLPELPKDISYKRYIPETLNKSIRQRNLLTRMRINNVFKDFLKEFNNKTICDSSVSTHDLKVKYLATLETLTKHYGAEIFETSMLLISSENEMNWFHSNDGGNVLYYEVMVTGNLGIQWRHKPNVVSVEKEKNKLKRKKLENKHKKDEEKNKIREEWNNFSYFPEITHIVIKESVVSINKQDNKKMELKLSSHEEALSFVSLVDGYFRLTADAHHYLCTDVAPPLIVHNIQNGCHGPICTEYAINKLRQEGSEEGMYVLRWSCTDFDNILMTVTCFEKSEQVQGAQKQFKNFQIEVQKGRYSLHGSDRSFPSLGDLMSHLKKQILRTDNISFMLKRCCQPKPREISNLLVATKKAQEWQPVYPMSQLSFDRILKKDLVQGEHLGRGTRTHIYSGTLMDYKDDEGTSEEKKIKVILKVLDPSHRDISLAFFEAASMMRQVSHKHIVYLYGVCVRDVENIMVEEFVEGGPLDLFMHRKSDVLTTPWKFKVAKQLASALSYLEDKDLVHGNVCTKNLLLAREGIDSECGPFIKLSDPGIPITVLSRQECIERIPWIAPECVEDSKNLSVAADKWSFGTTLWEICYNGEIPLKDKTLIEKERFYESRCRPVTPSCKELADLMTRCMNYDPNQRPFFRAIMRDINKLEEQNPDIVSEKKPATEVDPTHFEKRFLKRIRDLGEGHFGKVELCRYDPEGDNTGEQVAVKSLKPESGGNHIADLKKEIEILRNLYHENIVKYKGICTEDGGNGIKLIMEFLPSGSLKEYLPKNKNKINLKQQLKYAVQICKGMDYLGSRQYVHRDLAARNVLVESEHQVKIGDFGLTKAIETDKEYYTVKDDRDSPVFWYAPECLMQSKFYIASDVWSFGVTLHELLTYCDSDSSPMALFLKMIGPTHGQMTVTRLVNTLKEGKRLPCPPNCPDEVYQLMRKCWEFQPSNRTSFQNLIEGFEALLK

On to `CCOC1CCCN(S(=O)(=O)CC2CCC(N(C)c3ncnc4[nH]ccc34)CC2)C1` (stereo not drawn) [Example 3, N-(trans-4-{[(3-ethoxypiperidin-1-yl)sulfonyl]methyl}cyclo-hexyl)-N-methyl-7H-pyrrolo[2,3-d]pyrimidin-4-amine], for which the results for the IC50 on JAK2, on JAK3 and on JAK1 were 4.09 nM, 31.7 nM and 1.2 nM, respectively.

Regarding `CCC1(NC(=O)OCc2ccccc2)CCCN(S(=O)(=O)C[C@H]2CC[C@H](N(C)c3ncnc4[nH]ccc34)CC2)C1` (stereo partly drawn) [Example 4, benzyl {3-ethyl-1-[({trans-4-[methyl(7H-pyrrolo[2,3-d]pyrimidin-4-yl)amino]cyclohexyl}methyl)-sulfonyl]piperidin-3-yl}carbamate], the IC50 on JAK2 worked out at 71.7 nM; at JAK3 it was 846 nM; at JAK1, 44.6 nM.

With `CC(=O)C1CCCN(S(=O)(=O)C[C@H]2CC[C@H](N(C)c3ncnc4[nH]ccc34)CC2)C1` (stereo partly drawn) [Example 5, 1-{1-[({trans-4-[methyl(7H-pyrrolo[2,3-d]pyrimidin-4-yl)amino]-cyclohexyl}methyl)sulfonyl]-piperidin-3-yl}ethanone], the IC50 on JAK2 was 21.9 nM; on JAK3 it was 339 nM; on JAK1, 7.07 nM.

Turning to `CN(c1ncnc2[nH]ccc12)[C@H]1CC[C@H](CS(=O)(=O)N2CCCC(C(F)(F)F)C2)CC1` (stereo partly drawn) [Example 6, N-methyl-N-[trans-4-({[3-(trifluoromethyl)piperidin-1-yl]sulfonyl}methyl)-cyclohexyl]-7H-pyrrolo[2,3-d]pyrimidin-4-amine], the IC50 on JAK2 came to 54.3 nM; at JAK3, 604 nM; at JAK1 it was 7.25 nM.

Take `CN(c1ncnc2[nH]ccc12)[C@H]1CC[C@H](CS(=O)(=O)N2CCCC(OCC(N)=O)C2)CC1` (stereo partly drawn) [Example 7, 2-({1-[({trans-4-[methyl-(7H-pyrrolo[2,3-d]-pyrimidin-4-yl)amino]-cyclohexyl}methyl)sulfonyl]-piperidin-3-yl}oxy)-acetamide]: the IC50 at JAK2 was 18.3 nM; on JAK3, 173 nM; on JAK1, 2.96 nM.

Turning to `CN(c1ncnc2[nH]ccc12)[C@H]1CC[C@H](CS(=O)(=O)N2CCCC(CN3CCCC3)C2)CC1` (stereo partly drawn) [Example 8, N-methyl-N-[trans-4-({[3-(pyrrolidin-1-ylmethyl)-piperidin-1-yl]sulfonyl}-methyl)cyclohexyl]-7H-pyrrolo[2,3-d]pyrimidin-4-amine], the IC50 came to 3280 nM at JAK3 and 14.8 nM on JAK1.

With `CN(c1ncnc2[nH]ccc12)[C@H]1CC[C@H](CS(=O)(=O)N2CCC(N)CC2)CC1` [Example 11, N-(trans-4-{[(4-amino-piperidin-1-yl)sulfonyl]-methyl}cyclohexyl)-N-methyl-7H-pyrrolo[2,3-d]-pyrimidin-4-amine], the IC50 at JAK3 was found to be 2270 nM; at JAK1, 42.3 nM.

Take `CCOCCO[C@@H]1CCN(S(=O)(=O)C[C@H]2CC[C@H](N(C)c3ncnc4[nH]ccc34)CC2)C1` [Example 28, N-[trans-4-({[(3R)-3-(2-ethoxyethoxy)pyrrolidin-1-yl]sulfonyl}methyl)-cyclohexyl]-N-methyl-7H-pyrrolo[2,3-d]pyrimidin-4-amine]: the results for the IC50 on JAK2 and on JAK1 were 16.8 nM and 6.31 nM, respectively.

As to `CN(c1ncnc2[nH]ccc12)[C@H]1CC[C@H](CS(=O)(=O)N2CCC(CS(=O)(=O)CC3CC3)CC2)CC1` [Example 49, N-(trans-4-{[(4-{[(cyclopropylmethyl)sulfonyl]-methyl}piperidin-1-yl)sulfonyl]-methyl}-cyclohexyl)-N-methyl-7H-pyrrolo[2,3-d]pyrimidin-4-amine], the 50% inhibitory concentration (IC50) was 491 nM on JAK3 and 11.7 nM on JAK1.

Regarding `CC[C@H](O)C1CCN(S(=O)(=O)C[C@H]2CC[C@H](N(C)c3ncnc4[nH]ccc34)CC2)CC1` [Example 53, 1-{1-[({trans-4-[methyl(7H-pyrrolo[2,3-d]pyrimidin-4-yl)amino]cyclohexyl}-methyl)sulfonyl]piperidin-4-yl}propan-1-ol], the results for the IC50 at JAK3 and on JAK1 were 673 nM and 22.8 nM, respectively.

`CN(c1ncnc2[nH]ccc12)[C@H]1CC[C@H](CS(=O)(=O)N2CCC[C@H](C(N)=O)C2)CC1` [Example 59, 1-[({trans-4-[methyl(7H-pyrrolo[2,3-d]pyrimidin-4-yl)amino]cyclohexyl}methyl)-sulfonyl]piperidine-3-carboxamide]: the IC50 on JAK3 came out at 222 nM; at JAK1 it was 6.45 nM.

In the case of `C[C@H]1CCCN1S(=O)(=O)C[C@H]1CC[C@H](N(C)c2ncnc3[nH]ccc23)CC1` [Example 86, N-methyl-N-(trans-4-{[(2-methylpyrrolidin-1-yl)-sulfonyl]methyl}cyclohexyl)-7H-pyrrolo[2,3-d]-pyrimidin-4-amine], the results for the IC50 on JAK3 and at JAK1 were 457 nM and 6.47 nM, respectively.

Turning to `CN(c1ncnc2[nH]ccc12)[C@H]1CC[C@H](CS(=O)(=O)N2CC[C@](C)(O)C2)CC1` [Example 99, 3-methyl-1-[({trans-4-[methyl(7H-pyrrolo[2,3-d]pyrimidin-4-yl)amino]cyclohexyl}methyl)-sulfonyl]pyrrolidin-3-ol], the values for the concentration for half-maximal inhibition (IC50) on JAK3 and at JAK1 were 322 nM and 8.34 nM, respectively.

For `CN(c1ncnc2[nH]ccc12)[C@H]1CC[C@H](CS(=O)(=O)N2CCC[C@H]2CN2CCCC2)CC1` [Example 108, N-methyl-N-[trans-4-({[(2S)-2-(pyrrolidin-1-ylmethyl)pyrrolidin-1-yl]sulfonyl}methyl)cyclo-hexyl]-7H-pyrrolo[2,3-d]pyrimidin-4-amine], the IC50 came to 813 nM at JAK3 and 4.73 nM on JAK1.

As for `CN(c1ncnc2[nH]ccc12)[C@H]1CC[C@H](CS(=O)(=O)N2CC(c3cccnc3)C2)CC1` [Example 111, N-methyl-N-(trans-4-{[(3-pyridin-3-ylazetidin-1-yl)sulfonyl]methyl}cyclo-hexyl)-7H-pyrrolo[2,3-d]pyrimidin-4-amine], the IC50 at JAK3 stood at 346 nM; on JAK1 it was 22.7 nM.

`CN(c1ncnc2[nH]ccc12)[C@H]1CC[C@H](CS(=O)(=O)N2CC(F)C2)CC1` [Example 112, N-(trans-4-{[(3-fluoroazetidin-1-yl)-sulfonyl]-methyl}-cyclohexyl)-N-methyl-7H-pyrrolo[2,3 d]pyrimidin-4-amine]: the values for the IC50 at JAK3 and at JAK1 were 143 nM and 12.5 nM, respectively.

As for `CN(c1ncnc2[nH]ccc12)[C@H]1CC[C@H](CS(=O)(=O)N2CCS(=O)(=O)CC2)CC1` [Example 126, N-(trans-4-{[(1,1-dioxidothiomorpholin-4-yl)sulfonyl]methyl}cyclo-hexyl)-N-methyl-7H-pyrrolo[2,3-d]pyrimidin-4-amine], the IC50 at JAK3 is 587 nM; at JAK1, 19.4 nM.

In the case of `C[C@@H]1C[C@@H](CS(=O)(=O)N2CCC(CO)CC2)CC[C@@H]1N(C)c1ncnc2[nH]ccc12` [Example 130, {1-[({(1S,3R,4S)-3-methyl-4-[methyl(7H-pyrrolo[2,3-d]pyrimidin-4-yl)amino]cyclohexyl}-methyl)sulfonyl]piperidin-4-yl}methanol], the IC50 stood at 42.9 nM on JAK3 and 7.41 nM at JAK1.

`C[C@@H]1C[C@@H](CS(=O)(=O)N2CC[C@@H](CO)C2)CC[C@@H]1N(C)c1ncnc2[nH]ccc12` [Example 132, {(3R)-1-[({(1S,3R,4S)-3-methyl-4-[methyl(7H-pyrrolo[2,3-d]pyrimidin-4-yl)amino]cyclohexyl}methyl)-sulfonyl]pyrrolidin-3-yl}methanol]: the values for the IC50 at JAK3 and on JAK1 were 51.2 nM and 6.5 nM, respectively.

With `CC1CC(CS(=O)(=O)N2CC[C@H](CO)C2)CCC1N(C)c1ncnc2[nH]ccc12` (stereo partly drawn) [Example 133, ((3S)-1-((3-methyl-4-(methyl(7H-pyrrolo[2,3-d]pyrimidin-4-yl)amino)cyclohexyl)methylsulfonyl)pyrrolidin-3-yl)methanol], the IC50 at JAK3 was determined as 0.0421 nM; at JAK1 it was 0.00508 nM.

Turning to `CN(c1ncnc2[nH]ccc12)[C@H]1CC[C@H](CS(=O)(=O)N2CCC(C)(O)C2)CC1` (stereo partly drawn) [Example 137, 3-methyl-1-[({trans-4-[methyl(7H-pyrrolo[2,3-d]pyrimidin-4-yl)amino]cyclohexyl}methyl)sulfonyl]pyrrolidin-3-ol], the IC50 on JAK3 was 0.302 nM; at JAK1 it was 0.00777 nM.
